Laboratory results published in US9187431B2, “Substituted phenyl(oxy/thio)alkanol derivatives” (Bayer Intellectual Property GMBH, priority 2009, dated 2015).

Legend:
[1] = format: physicochemical; settings: pH 2.7
Description: The log P values were measured according to EEC directive 79/831 Annex V.A8 by HPLC (High Performance Liquid Chromatography) on reversed-phase columns (C 18), using the methods below: [α] The LC-MS determination in the acidic range is carried out at pH 2.7 using the mobile phases 0.1% aqueous formic acid and acetonitrile (contains 0.1% formic acid), linear gradient from 10% acetonitrile to 95% acetonitrile

Fusarium proliferatum = experiment: microbe, parasite or virus in culture; format: cell-based; settings: 120 h, read-out: inhibition of fumonisin FB1 production
Fusarium graminearum = experiment: microbe, parasite or virus in culture; format: cell-based; settings: 168 h, read-out: inhibition of DON/AcDON production
Phakopsora pachyrhizi = experiment: Phakopsora test (soya bean)/protective; format: in vivo, Phakopsora pachyrhizi on soya bean; settings: 250 ppm, protective, evaluation 11 days after inoculation
Pyricularia oryzae = format: in vivo, Pyricularia oryzae on rice; settings: 500 ppm active compound, protective, rice, evaluation 7 days after inoculation
Rhizoctonia solani = experiment: Rhizoctonia test (rice)/protective; format: in vivo, Rhizoctonia solani on rice; settings: 500 ppm active compound, protective, evaluation 4 days after inoculation
Description: Rhizoctonia Test (Rice)/Protective [table] To produce a suitable preparation of active compound, 1 part by weight of active compound is mixed with the stated amount of solvent, and the concentrate is diluted with water and the stated amount of emulsifier to the desired concentration. To test for protective activity, young rice plants are sprayed with the preparation of active compound at the stated application rate. 1 day after the treatment, the plants are inoculated with hyphae of Rhizoctonia solani. The plants are then placed in a greenhouse at a relative atmospheric humidity of 100% and a temperature of 25° C.

Cochliobolus miyabeanus = experiment: Cochliobolus test (rice)/protective; format: in vivo, Cochliobolus miyabeanus on rice; settings: 500 ppm active compound, protective, evaluation 7 days after inoculation
[2] = test system: Setaria viridis (green foxtail); experiment: Phytoregulatory pre-emergence action, SETVI; format: in vivo; settings: 320 g of a.i./ha, visual assessment after approx. 3 weeks
Description: (§1) Phytoregulatory Pre-Emergence Action Seeds of monocotyledonous or dicotyledonous crop plants are placed in wood-fibre pots in sandy loam and covered with soil. […] After the treatment, the pots are placed in a greenhouse and kept under good growth conditions for the test plants. The visual assessment of the suppression of growth in the test plants is carried out after a trial period of approx. 3 weeks by comparison with untreated controls (phytoregulatory activity in percent: 100% activity=maximum inhibition of plant growth, 0% activity=plant growth like that of an untreated control.)

[3] = test system: Triticum aestivum (common wheat); experiment: Phytoregulatory pre-emergence action, TRZAS; format: in vivo; settings: 320 g of a.i./ha, visual assessment after approx. 3 weeks
Description: as §1

Brassica napus (rape) = experiment: Phytoregulatory pre-emergence action, BRSNW; format: in vivo; settings: 320 g of a.i./ha, visual assessment after approx. 3 weeks
Description: as §1

[4] = test system: Viola tricolor (wild pansy); experiment: Phytoregulatory pre-emergence action, VIOTR; format: in vivo; settings: 320 g of a.i./ha, visual assessment after approx. 3 weeks
Description: as §1

[5] = test system: Abuthilon theophrasti (velvetleaf); experiment: Phytoregulatory pre-emergence action, ABUTH; format: in vivo; settings: 320 g of a.i./ha, visual assessment after approx. 3 weeks
Description: as §1

| SMILES | logP [1] | further results |
| --- | --- | --- |
| CC(C)(C)C(O)(COc1c(Cl)cc(Br)cc1Cl)Cn1cncn1 (stereo not drawn) [Compound 21] | logP 4.04 ^[a], [M]^+ = 423.9/426 | – |
| Cc1cc(OCC(O)(Cn2cncn2)C(C)(C)C)cc(C)c1Br (stereo not drawn) [Compound 23] | logP 3.85 ^[a], [M]^+ = 384/386 | – |
| Cc1cc(OCC(O)(Cn2cncn2)C2(C)CC2)ccc1Br (stereo not drawn) [Compound 48] | logP 3.1 ^[a], [M]^+ = 368/369 | – |
| CC(C)(C)C(O)(COc1ccc(Br)c(F)c1)Cn1cncn1 (stereo not drawn) [Compound 30] | logP 3.13 ^[a], [M]^+ = 374/376 | – |
| CC(C)(C)C(O)(COc1cc(F)c(Br)c(F)c1)Cn1cncn1 (stereo not drawn) [Compound 33] | logP 3.25 ^[a], [M]^+ = 392/394 | – |
| COc1cc(OCC(O)(Cn2cncn2)C(C)(C)C)ccc1Br (stereo not drawn) [Compound 27] | logP 2.92 ^[a], [M]^+ = 386/388 | – |
| Cc1cc(OCC(O)(Cn2cncn2)C2(C)CC2)c(C)cc1I (stereo not drawn) [Compound 45] | logP 3.76 ^[a], [M]^+ = 428/430 | – |
| Cc1cc(OCC(O)(Cn2cncn2)C2(C)CC2)cc(C)c1I (stereo not drawn) [Compound 46] | logP 3.68 ^[a], [M]^+ = 428/430 | – |
| COc1cc(Br)ccc1OCC(O)(Cn1cncn1)C(C)(C)C (stereo not drawn) [Compound 20] | logP 3.09 ^[a], [M]^+ = 386/388 | – |
| CC1(C(O)(COc2cc(F)c(Br)c(F)c2)Cn2cncn2)CC1 (stereo not drawn) [Compound 43] | logP 2.95 ^[a], [M]^+ = 390/391 | – |
| CC1(C(O)(COc2ccc(Br)c(F)c2F)Cn2cncn2)CC1 (stereo not drawn) [Compound 44] | logP 2.95 ^[a], [M]^+ = 390/391 | – |
| Cc1cc(OCC(O)(Cn2cncn2)C(C)(C)C)ccc1Br (stereo not drawn) [Compound 19] | logP 3.41 ^[a], [M]^+ = 370/372 | – |
| CC(C)(C)C(O)(COc1ccc(Br)c(F)c1F)c1cncnc1 (stereo not drawn) [Compound 13] | – | inhibition at 50 µM (Fusarium proliferatum): > 80%; inhibition at 50 µM (Fusarium graminearum): > 80% |
| CC(C)(C)C(O)(COc1ccc(Br)c(F)c1F)Cn1cncn1 (stereo not drawn) [Compound 34] | logP 3.29 ^[a], [M]^+ = 392/394 | – |
| CC(C)(C)C(O)(COc1ccc(Br)cc1F)Cn1cncn1 (stereo not drawn) [Compound 8] | – | efficacy (Phakopsora pachyrhizi): ≥ 80% |
| Cc1cc(Br)ccc1OCC(O)(Cn1cncn1)C(C)(C)C (stereo not drawn) [Compound 22] | logP 3.5 ^[a], [M]^+ = 370/372 | – |
| CC(C)(C)C(O)(COc1c(F)cc(Br)cc1Cl)Cn1cncn1 (stereo not drawn) [Compound 28] | logP 3.76 ^[a], [M]^+ =407.9/411 | – |

| SMILES | logP [1] | further results |
| --- | --- | --- |
| Cc1cc(I)ccc1OCC(O)(Cn1cncn1)C1(C)CC1 (stereo not drawn) [Compound 47] | logP 3.37 ^[a], [M]^+ = 414/416 | – |
| CC(C)(C)C(O)(COc1c(F)cc(Br)cc1F)Cn1cncn1 (stereo not drawn) [Compound 31] | logP 3.37 ^[a], [M]^+ = 392/394 | – |
| CC(C)(C)C(O)(COc1cc(F)c(Br)cc1F)Cn1cncn1 (stereo not drawn) [Compound 29] | logP 3.21 ^[a], [M]^+ = 392/394 | – |
| Cc1cc(Br)ccc1OCC(O)(c1cncnc1)C(C)(C)C (stereo not drawn) [Compound 12] | – | efficacy (Pyricularia oryzae): ≥ 80%; efficacy (Rhizoctonia solani): ≥ 80%; efficacy (Cochliobolus miyabeanus): ≥ 80%; inhibition at 50 µM (Fusarium proliferatum): > 80%; inhibition at 50 µM (Fusarium graminearum): > 80%; Inhibition of the growth of useful or harmful plants in %, SETVI [2]: 90%; Inhibition of the growth of useful or harmful plants in %, TRZAS [3]: 50%; Inhibition of the growth of useful or harmful plants in %, BRSNW (Brassica napus (rape)): 60%; Inhibition of the growth of useful or harmful plants in %, VIOTR [4]: 90%; Inhibition of the growth of useful or harmful plants in %, ABUTH [5]: 80% |
| Cc1cc(Br)cc(C)c1OCC(O)(Cn1cncn1)C(C)(C)C (stereo not drawn) [Compound 24] | logP 3.85 ^[a], [M]^+ = 384/386 | – |
| Cc1cc(OCC(O)(Cn2cncn2)C2(C)CC2)cc(C)c1Br (stereo not drawn) [Compound 39] | logP 3.5 ^[a], [M]^+ = 382/384 | – |
| CC(C)(C)C(O)(COc1ccc(Br)c(OC(F)(F)F)c1)Cn1cncn1 (stereo not drawn) [Compound 35] | logP 3.72^[a], [M]^+ = 440/441 | – |
| Cc1cc(OCC(O)(Cn2cncn2)C(C)(C)C)c(C)cc1I (stereo not drawn) [Compound 36] | logP 4.15 ^[a], [M]^+ = 430/432 | – |
| CC(C)(C)C(O)(COc1ccc(Cl)cc1Cl)c1cncnc1 (stereo not drawn) [EP-A 0 028 755, Example 5, reference compound] | – | Inhibition of the growth of useful or harmful plants in %, SETVI [2]: 80%; Inhibition of the growth of useful or harmful plants in %, TRZAS [3]: 40%; Inhibition of the growth of useful or harmful plants in %, BRSNW (Brassica napus (rape)): 60%; Inhibition of the growth of useful or harmful plants in %, VIOTR [4]: 90%; Inhibition of the growth of useful or harmful plants in %, ABUTH [5]: 40% |
| CC1(C(O)(COc2ccc(Br)cc2Cl)Cn2cncn2)CC1 (stereo not drawn) [Compound 41] | logP 3.22 ^[a], [M]^+ = 388/391 | – |
| CC(C)(C)C(O)(COc1ccc(Br)cc1Cl)Cn1cncn1 (stereo not drawn) [Compound 26] | logP 3.59 ^[a], [M]^+ = 389.9/393 | – |
| COc1cc(OCC(O)(Cn2cncn2)C2(C)CC2)ccc1Br (stereo not drawn) [Compound 42] | logP 2.67 ^[a], [M]^+ = 384/386 | – |
| Cc1cc(Br)cc(Cl)c1OCC(O)(Cn1cncn1)C(C)(C)C (stereo not drawn) [Compound 25] | logP 3.99 ^[a], [M]^+ = 403.9/407 | – |
| CC(C)(C)C(O)(COc1ccc(Br)c(C(F)(F)F)c1)Cn1cncn1 (stereo not drawn) [Compound 32] | logP 3.59 ^[a], [M]^+ = 424/426 | – |
| Cc1cc(Br)cc(Cl)c1OCC(O)(Cn1cncn1)C1(C)CC1 (stereo not drawn) [Compound 40] | logP 3.68 ^[a], [M]^+ = 402/405 | – |
| Cc1cc(I)cc(C)c1OCC(O)(Cn1cncn1)C(C)(C)C (stereo not drawn) [Compound 38] | logP 4.04 ^[a], [M]^+ = 430/432 | – |
| Cc1cc(OCC(O)(Cn2cncn2)C(C)(C)C)cc(C)c1I (stereo not drawn) [Compound 37] | logP 4.04 ^[a], [M]^+ = 430/432 | – |
